# Test results taken from ChEMBL document CHEMBL1140084, “Discovery and evaluation of 4-(2-(4-chloro-1H-pyrazol-1-yl)ethylamino)-3-(6-(1-(3-fluoropropyl)piperidin-4-yl)-4-methyl-1H-benzo[d]imidazol-2-yl)pyridin-2(1H)-one (BMS-695735), an orally efficacious inhibitor of insulin-like growth factor-1 receptor kinase with broad spectrum in vivo antitumor …” (J Med Chem, 2008).
# How the values were obtained:
# [1] = Antiproliferative activity against transgenic mouse SAL cells overexpressing human IGF1R assessed as [3H]thymidine incorporation after 72 hrs
# Cytochrome P450 3A4 = Cytochrome P450 3A4 (Homo sapiens, UniProt P08684); assay: Inhibition of human recombinant CYP3A4 in human liver microsomes using BFC as a substrate
# [2] = molecular target: T1, Nuclear receptor subfamily 1 group I member 2 (Homo sapiens, UniProt O75469); assay: Induction of PXR transactivation
# T1 sequence (O75469 whole entry): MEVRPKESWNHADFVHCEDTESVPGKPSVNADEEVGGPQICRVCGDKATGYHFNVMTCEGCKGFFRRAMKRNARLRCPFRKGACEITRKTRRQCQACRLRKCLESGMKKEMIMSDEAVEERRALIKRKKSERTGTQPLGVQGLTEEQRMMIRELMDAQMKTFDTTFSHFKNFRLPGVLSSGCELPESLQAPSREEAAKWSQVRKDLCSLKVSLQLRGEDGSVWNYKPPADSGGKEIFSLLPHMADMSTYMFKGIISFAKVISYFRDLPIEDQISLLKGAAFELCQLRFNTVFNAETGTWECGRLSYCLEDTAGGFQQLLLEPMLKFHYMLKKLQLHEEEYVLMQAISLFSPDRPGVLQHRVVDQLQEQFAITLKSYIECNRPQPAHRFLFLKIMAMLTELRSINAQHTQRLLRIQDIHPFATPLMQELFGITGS
# [3] = AUC in mouse at 20 mg/kg after 4 hrs; format: ADME, organism-based; parameters: time < 4 hr, dose 20 mg/kg; conditions: plasma
# [4] = Protein binding in mouse plasma at 10 uM by equilibrium dialysis; format: ADME, cell-free; conditions: read-out: PPB (converted)
# Hepatocyte = assay: Increase in CYP3A4 mRNA expression level in human hepatocytes; format: functional, cell-based
# [5] = molecular target: PXR (nuclear receptor subfamily 1 group I member 2) (Homo sapiens, UniProt O75469); assay: Induction of PXR transactivation at 10 uM relative to rifampicin; conditions: read-out: Activity
# [6] = Apparent permeability across human CaCo2 cells; format: ADME, cell-based; conditions: Caco-2
# [7] = Protein binding in human plasma at 10 uM; format: ADME, cell-free; conditions: read-out: PPB
# Cytochrome P450 3A4, sequence (P08684 whole entry): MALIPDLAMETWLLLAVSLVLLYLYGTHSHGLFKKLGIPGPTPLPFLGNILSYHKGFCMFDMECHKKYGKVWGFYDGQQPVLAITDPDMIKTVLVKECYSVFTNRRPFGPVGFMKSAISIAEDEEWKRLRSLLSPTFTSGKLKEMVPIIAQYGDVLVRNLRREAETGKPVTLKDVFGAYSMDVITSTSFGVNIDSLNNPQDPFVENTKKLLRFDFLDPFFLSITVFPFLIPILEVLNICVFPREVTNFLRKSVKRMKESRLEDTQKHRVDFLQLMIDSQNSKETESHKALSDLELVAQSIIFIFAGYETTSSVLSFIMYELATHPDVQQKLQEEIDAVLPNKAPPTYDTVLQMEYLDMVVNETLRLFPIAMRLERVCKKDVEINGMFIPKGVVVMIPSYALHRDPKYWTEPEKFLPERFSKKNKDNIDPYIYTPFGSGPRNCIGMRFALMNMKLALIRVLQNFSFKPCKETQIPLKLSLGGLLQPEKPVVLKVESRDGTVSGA
compound,measurement,setting,value
COCCN1CCC(c2cc(C)c3nc(-c4c(NCCn5cc(Cl)cn5)cc[nH]c4=O)[nH]c3c2)CC1,IC50,[1],46 nM
same,IC50,Cytochrome P450 3A4,19500 nM
same,EC20,[2],> 50000 nM
same,AUC at 4 h,[3],1.8 µM·h
same,fraction unbound at 10 µM,[4],0.038
Cc1cc(N2CCOCC2)cc2[nH]c(-c3c(NC[C@@H](O)c4cccc(Cl)c4)cc[nH]c3=O)nc12,IC50,[1],110 nM
same,EC20,[2],1100 nM
same,AUC at 4 h,[3],50 µM·h
same,Activity,Hepatocyte,Dose-dependent effect
same,fraction unbound at 10 µM,[4],< 0.001
same,activity at 10 µM,[5],125%
same,Papp,[6],1.8 ×10⁻⁶ cm/s
same,fraction unbound at 10 µM,[7],< 0.002
COc1ccc([C@H](O)CNc2cc[nH]c(=O)c2-c2nc3c(C)cc(C4CCN(CCCF)CC4)cc3[nH]2)cc1Cl,IC50,[1],40 nM
same,IC50,Cytochrome P450 3A4,10000 nM
same,EC20,[2],> 50000 nM
same,AUC at 4 h,[3],0.28 µM·h
Cc1cc(C2CCN(C)CC2)cc2[nH]c(-c3c(NCCn4cc(Cl)cn4)cc[nH]c3=O)nc12,IC50,[1],162 nM
same,IC50,Cytochrome P450 3A4,40000 nM
same,EC20,[2],> 50000 nM
same,AUC at 4 h,[3],0.4 µM·h
Cc1cc(C2CCN(CCCF)CC2)cc2[nH]c(-c3c(NC[C@@H](O)c4cccc(Cl)c4)cc[nH]c3=O)nc12,IC50,[1],76 nM
same,EC20,[2],> 50000 nM
